Results reported in PMC11612555, “Impact of camel milk lactoferrin peptides against breast cancer cells: in silico and in vitro study” (Frontiers in Pharmacology, 2024).
Converted amounts (≈) assume the structure as drawn. Like-named read-outs stand apart in the source and are kept apart here. Ends that are not written are not given here. Peptide text beside a SMILES is read from it.

Tests used:
HDFa cells = test: MTT assay on HDFa normal cells, 48 h; assay type: cell-based, human; settings: for IC50 Value: mean ± SD
Method: DMEM medium supplemented with 10% fetal bovine serum (FBS) and 1% penicillin-streptomycin (10,000 U/mL) (complete media) was prepared to culture MCF-7 and HDFa cells in T25 flasks at 37°C in a CO2 incubator. Once the cells had adhered and grown to 70%–90% confluence within 24–48 h, they were transferred to new flasks. 2 mL of 0.25% trypsin was added to detach the cells, which were then incubated for 5 min at 37°C. The trypsin activity was stopped by adding 2 mL of complete media. The detached cells were collected into a tube and centrifuged at 1,500 rpm for 5 min. After removing the supernatant, 3 mL of media was added to resuspend the cell pellet. 20 μL of suspended cells were mixed with 20 µL of 0.4% trypan blue for staining and cell counting. 100 μL of suspended cells in complete media, containing approximately 10^4 cells, were added to each well of a 96-well plate and incubated for 24 h to allow cell attachment. Peptides (PEP20, PEP24, PEP63, PEP66, PEP67, and PEP74) at various concentrations (200, 100, 50, 25, 12.5, 6.25 μg/mL) were then added to the media in each well. Each concentration was repeated three times. After a 48-h incubation period at 37°C, the peptide-treated medium was replaced with 100 µL of 0.5 mg/mL MTT and incubated for 4 h at 37°C in the dark. Following removal of the MTT and addition of 100 µL of DMSO, the absorbance of each well in the 96-well plate was measured at 595 nm using an ELISA reader (Bio-RAD microplate reader, Japan) ([Ali et al., 2018]; [Salim et al., 2022]).
The percentage viability was calculated by multiplying the absorbance of treated cells by 100 and dividing the absorbance of untreated cells. The viability of untreated cells is considered 100%. The each concentration of each peptide and cisplatin was repeated triplicate. The unite of cell viability and IC50 are percentage and μg/mL. The viability and IC50 of the treated cells are expressed as the mean ± standard deviation (SD). GraphPad Prism software (version 9.0, San Diego, CA, United States) was used to calculate the IC50 values of the peptides, […], and their combination.

MCF-7 cells = tested on: MCF-7 cells; parameters: % of inhibition of MCF-7: dose or concentration left out as unconfirmed; settings: for IC50 Range / IC50 Value: MCF-7, MTT; for IC50 Value: mean ± SD
Method: DMEM medium supplemented with 10% fetal bovine serum (FBS) and 1% penicillin-streptomycin (10,000 U/mL) (complete media) was prepared to culture MCF-7 and HDFa cells in T25 flasks at 37°C in a CO2 incubator. Once the cells had adhered and grown to 70%–90% confluence within 24–48 h, they were transferred to new flasks. 2 mL of 0.25% trypsin was added to detach the cells, which were then incubated for 5 min at 37°C. The trypsin activity was stopped by adding 2 mL of complete media. The detached cells were collected into a tube and centrifuged at 1,500 rpm for 5 min. After removing the supernatant, 3 mL of media was added to resuspend the cell pellet. 20 μL of suspended cells were mixed with 20 µL of 0.4% trypan blue for staining and cell counting. 100 μL of suspended cells in complete media, containing approximately 10^4 cells, were added to each well of a 96-well plate and incubated for 24 h to allow cell attachment. […] Each concentration was repeated three times. After a 48-h incubation period at 37°C, the peptide-treated medium was replaced with 100 µL of 0.5 mg/mL MTT and incubated for 4 h at 37°C in the dark. Following removal of the MTT and addition of 100 µL of DMSO, the absorbance of each well in the 96-well plate was measured at 595 nm using an ELISA reader (Bio-RAD microplate reader, Japan) ([Ali et al., 2018]; [Salim et al., 2022]).
The percentage viability was calculated by multiplying the absorbance of treated cells by 100 and dividing the absorbance of untreated cells. The viability of untreated cells is considered 100%. The each concentration of each peptide and cisplatin was repeated triplicate. The unite of cell viability and IC50 are percentage and μg/mL. The viability and IC50 of the treated cells are expressed as the mean ± standard deviation (SD). GraphPad Prism software (version 9.0, San Diego, CA, United States) was used to calculate the IC50 values of the peptides, mitotane, and their combination.

[1] = IC50 of HDFa related to IC50 of MCF-7

Compound | IC50 Range (HDFa cells) | SI (selectivity index) (MCF-7 cells; [1]) | IC50 Range (MCF-7 cells; 48 h) | IC50 Value (MCF-7 cells; 48 h) | also measured
N.N.[Cl][Pt][Cl] [Cisplatin, reference compound] | 5.650 to 7.856 µg/mL | 1.565 | 3.581 to 5.055 µg/mL | 4.255 ± 0.738 µg/mL | IC50 Value (HDFa cells): 6.663 ± 1.10 µg/mL; IC50 Value (HDFa cells; listed as cisplatin): 6.66 µg/mL; IC50 Value (MCF-7 cells; 48 h, listed as cisplatin): 4.25 µg/mL
CSCC[C@H](NC(=O)[C@H](CC(C)C)NC(=O)[C@H](Cc1ccccc1)NC(=O)[C@H](C)NC(=O)[C@H](CS)NC(=O)[C@H](C)NC(=O)[C@H](CCC(=O)O)NC(=O)[C@H](CC(C)C)NC(=O)[C@H](CC(C)C)NC(=O)[C@@H]1CCCN1C(=O)[C@H](CO)NC(=O)[C@@H](NC(=O)[C@H](CO)NC(=O)[C@@H](N)CS)[C@@H](C)O)C(=O)N[C@@H](CCCNC(=N)N)C(=O)O [PEP66, CSTSPLLEACAFLMR] (H-CSTSPLLEACAFLMR-OH; N-terminus and C-terminus assumed) | 137.2 to 206.9 µg/mL | 3.19 | 46.73 to 59.71 µg/mL | 52.82 ± 6.49 µg/mL (≈ 32.2 µM) | % of inhibition of MCF-7 (MCF-7 cells; concentration (Figure 6)): 76.90%; percentage of MCF7 inhibition (MCF-7 cells; dose of 200 μg/mL): 77%
LFFPALLSLGALGLCLAASK [PEP67] | – | – | – | – | SI (selectivity index) (MCF-7 cells): 0.6
PWNHIKRYF [PEP24, PWNHIKRYF] | – | – | – | – | IC50 (MCF-7 cells; 48 h): > 200 µg/mL
